Experimental data from publication PMC8830500, “Small Molecule Palmatine Targeting Musashi-2 in Colorectal Cancer” (Frontiers in Pharmacology, 2022).

Assays:
Assay type in all cases: binding
Musashi-2 (MSI2) = Musashi-2 (MSI2) (Homo sapiens, UniProt Q96DH6); assay: MST with GFP-tagged protein in HEK293FT lysate; CETSA in HCT116 cells
LIN28A = molecular target: T1, LIN28A (Homo sapiens, UniProt Q9H9Z2); assay: MST with GFP-tagged protein in cell lysate
T1 construct: GFP-tagged, HEK293FT lysate
T1 sequence (Q9H9Z2 2-209): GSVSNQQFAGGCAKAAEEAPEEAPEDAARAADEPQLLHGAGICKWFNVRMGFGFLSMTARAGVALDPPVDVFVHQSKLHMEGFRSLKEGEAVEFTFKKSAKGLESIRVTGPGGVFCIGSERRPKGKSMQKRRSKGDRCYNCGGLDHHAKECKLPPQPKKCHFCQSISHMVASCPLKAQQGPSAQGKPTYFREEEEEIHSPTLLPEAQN

HUR = molecular target: T2, HUR (Homo sapiens, UniProt Q15717); assay: MST with GFP-tagged protein in cell lysate
T2 construct: gene ELAVL1; GFP-tagged, HEK293FT lysate
T2 sequence (Q15717 2-326): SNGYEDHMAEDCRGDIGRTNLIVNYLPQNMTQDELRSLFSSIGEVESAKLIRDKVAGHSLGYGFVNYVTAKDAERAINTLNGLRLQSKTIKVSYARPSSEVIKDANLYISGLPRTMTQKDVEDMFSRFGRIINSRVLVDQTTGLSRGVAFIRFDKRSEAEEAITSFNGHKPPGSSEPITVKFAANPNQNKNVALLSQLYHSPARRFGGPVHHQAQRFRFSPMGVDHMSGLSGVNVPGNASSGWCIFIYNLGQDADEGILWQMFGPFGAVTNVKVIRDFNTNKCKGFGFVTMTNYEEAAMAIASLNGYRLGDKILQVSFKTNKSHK

Chain of Musashi-2 (MSI2) (Q96DH6 whole entry): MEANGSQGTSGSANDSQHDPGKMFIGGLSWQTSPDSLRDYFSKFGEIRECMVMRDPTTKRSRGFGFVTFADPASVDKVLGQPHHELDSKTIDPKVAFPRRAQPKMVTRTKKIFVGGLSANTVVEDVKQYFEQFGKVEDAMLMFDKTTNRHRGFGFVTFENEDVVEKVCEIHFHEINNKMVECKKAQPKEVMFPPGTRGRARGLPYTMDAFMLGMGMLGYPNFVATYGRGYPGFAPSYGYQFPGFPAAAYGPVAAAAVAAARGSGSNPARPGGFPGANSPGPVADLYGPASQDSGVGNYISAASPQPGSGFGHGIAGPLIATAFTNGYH

COc1cc2c(cc1OC)-c1cc3ccc(OC)c(OC)c3c[n+]1CC2 [palmatine]
Kd (Musashi-2 (MSI2)): 17 µM
Kd (LIN28A): 49.6 µM
Kd (HUR): 33.5 µM
